In patent US8008291B2 (Mimetica Pty Ltd, priority 2008, dated 2011) one finds IC50 data, which are given here for 27 molecules.

SMILES strings stand for the structures. pIC50: −log10 of the molar value. Where only a bound is given, the exact number is not on record here.

For this assay, the target named is T1, human MC5R (hMC5R) (Homo sapiens, UniProt P33032).
T1 construct: purchased Perkin Elmer RBXMC5M400UA
T1 sequence (P33032 whole entry): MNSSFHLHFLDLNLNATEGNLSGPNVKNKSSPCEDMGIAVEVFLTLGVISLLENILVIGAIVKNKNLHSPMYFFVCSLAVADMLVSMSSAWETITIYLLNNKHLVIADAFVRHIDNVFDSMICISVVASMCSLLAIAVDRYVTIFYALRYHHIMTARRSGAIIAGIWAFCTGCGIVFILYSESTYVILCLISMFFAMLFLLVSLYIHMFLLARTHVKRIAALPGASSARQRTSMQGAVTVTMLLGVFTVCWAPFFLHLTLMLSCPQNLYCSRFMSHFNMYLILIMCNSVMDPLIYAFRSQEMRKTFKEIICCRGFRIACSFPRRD
Put plainly: Human MC5R radioligand binding assay (membranes, [125I] NDP-MSH displacement). The following applies: hMC5R binding; tested as trifluoroacetate or hydrochloride salts, or free bases; read-out: MC5R radioligand IC50. The method, then: Assessments of compound binding to human MC5R (hMC5R) ) by displacement of an ^125I-labeled NDP-MSH receptor ligand peptide were performed essentially as described in the data sheets produced by Perkin Elmer to accompany their frozen hMC5R membranes (Perkin Elmer catalog number RBXMC5M400UA).
[^125I] NDP-MSH: radiolabeled in house and purified by HPLC:
• Na^125I (0.5 mCi, 17.4 Ci/mg) was added to 50 μL sodium phosphate (50 mM, pH7.4) in an eppendorf tube precoated with IODOGEN. After incubation for 10 mins the phosphate buffer containing the iodine was added to NDP-MSH (10 ul at 1 mg/mL) in a separate eppendorf tube. This was incubated for a further 10 mins. The iodinated NDP-MSH was purified by HPLC on a Zorbax SB 300 column using solvent A: 0.05% TFA and solvent B: 90% acetonitrile 0.045% TFA with a linear gradient, 0-67% B over 60 mins. […] Resuspended membranes were kept on ice until they were added to the wells of the plate. Binding Protocol for 400 microassays per vial: • Assays were performed in 96 well polypropylene plates. […] This was incubated for 1 hr at 37° C.
Consider `N=C(N)NCCC[C@@H]1N[C@H](CNC(=O)C2CC2c2ccccc2)CCN(CC(c2ccccc2)c2ccccc2)C1=O` (stereo partly drawn) [Compound 174, N-(((3S,5S)-1-(2,2-diphenylethyl)-3-(3-guanidinopropyl)-2-oxo-1,4-diazepan-5-yl)methyl)-2-phenylcyclopropanecarboxamide], for which the pIC50 was > 6.00.
The result for `N=C(N)NCCC[C@@H]1N[C@H](CNC(=O)/C=C/c2ccccc2O)CCN(CC(c2ccccc2)c2ccccc2)C1=O` [Compound 189, (E)-N-(((3S,5S)-1-(2,2-diphenylethyl)-3-(3-guanidinopropyl)-2-oxo-1,4-diazepan-5-yl)methyl)-3-(2-hydroxyphenyl)acrylamide] reads > 6.00; that for `N=C(N)NCCC[C@@H]1N[C@H](CNC(=O)/C(F)=C/c2ccccc2)CCN(CC(c2ccccc2)c2ccccc2)C1=O` [Compound 195, (Z)-N-(((3S,5S)-1-(2,2-diphenylethyl)-3-(3-guanidinopropyl)-2-oxo-1,4-diazepan-5-yl)methyl)-2-fluoro-3-phenylacrylamide], > 6.00.
Take `CC(CN1CC[C@@H](CNC(=O)c2ccc3ccccc3c2)N[C@@H](CCCNC(=N)N)C1=O)(c1ccccc1)c1ccccc1` [Compound 200, N-(((3S,5S)-1-(2,2-diphenylpropyl)-3-(3-guanidinopropyl)-2-oxo-1,4-diazepan-5-yl)methyl)-2-naphthamide]: the negative-log IC50 (pIC50) is > 6.00.
For the molecule `N=C(N)NCCC[C@@H]1N[C@H](CNC(=O)c2ccc3ccccc3c2)CCN(CC2CCCCC2)C1=O` [Compound 201, N-(((3S,5S)-1-(cyclohexylmethyl)-3-(3-guanidinopropyl)-2-oxo-1,4-diazepan-5-yl)methyl)-2-naphthamide], the negative logarithm of the IC50 (pIC50) is > 6.00.
As to `N=C(N)NCCC[C@@H]1N[C@H](CNC(=O)c2ccc3ccccc3c2)CCN(CC23CC4CC(CC(C4)C2)C3)C1=O` [Compound 202, N-(((3S,5S)-1-(1-adamantylmethyl)-3-(3-guanidinopropyl)-2-oxo-1,4-diazepan-5-yl)methyl)-2-naphthamide], the pIC50 is > 6.00.
The result for `C[C@@H](C(c1ccccc1)c1ccccc1)N1CC[C@@H](CNC(=O)c2ccc3ccccc3c2)N[C@@H](CCCNC(=N)N)C1=O` [Compound 203, N-(((3S,5S)-1-((S)-1,1-diphenylpropan-2-yl)-3-(3-guanidinopropyl)-2-oxo-1,4-diazepan-5-yl)methyl)-2-naphthamide] reads > 7.00; that for `C[C@H](C(c1ccccc1)c1ccccc1)N1CC[C@@H](CNC(=O)c2ccc3ccccc3c2)N[C@@H](CCCNC(=N)N)C1=O` [Compound 204, N-(((3S,5S)-1-((R)-1,1-diphenylpropan-2-yl)-3-(3-guanidinopropyl)-2-oxo-1,4-diazepan-5-yl)methyl)-2-naphthamide], > 6.00.
With `N=C(N)NCCC[C@@H]1N[C@H](CNC(=O)c2ccc3ccccc3c2)CCN(C2CCCCC2)C1=O` [Compound 205, N-(((3S,5S)-1-cyclohexyl-3-(3-guanidinopropyl)-2-oxo-1,4-diazepan-5-yl)methyl)-2-naphthamide] the figure was > 6.00; with `C[C@@H](N1CC[C@@H](CNC(=O)c2ccc3ccccc3c2)N[C@@H](CCCNC(=N)N)C1=O)C(F)(c1ccccc1)c1ccccc1` [Compound 206, N-(((3S,5S)-1-((R)-1-fluoro-11-diphenylpropan-2-yl)-3-(3-guanidinopropyl)-2-oxo-1,4-diazepan-5-yl)methyl)-2-naphthamide], > 6.00; with `CCOc1ccc(/C=C/C(=O)NC[C@@H]2CCN(CC(c3ccccc3)c3ccccc3)C(=O)[C@H](CCCNC(=N)N)N2)cc1` [Compound 210, (E)-N-(((3S,5S)-1-(2,2-diphenylethyl)-3-(3-guanidinopropyl)-2-oxo-1,4-diazepan-5-yl)methyl)-3-(4-ethoxyphenyl)acrylamide], > 7.00.
As for `NCCC[C@@H]1N[C@H](CNC(=O)c2ccc3cc(Br)ccc3c2)CCN(CC(c2ccccc2)c2ccccc2)C1=O` [Compound 211, N-(((3S,5S)-3-(3-aminopropyl)-1-(2,2-diphenylethyl)-2-oxo-1,4-diazepan-5-yl)methyl)-6-bromo-2-naphthamide], the pIC50 is > 7.00.
As for `NCCC[C@@H]1N[C@H](CNC(=O)C=Cc2ccccc2)CCN(CC(c2ccccc2)c2ccccc2)C1=O` [Compound 212, N-(((3S,5S)-3-(3-aminopropyl)-1-(2,2-diphenylethyl)-2-oxo-1,4-diazepan-5-yl)methyl)cinnamamide], the pIC50 was > 6.00.
With `CCCCC(CC)C(=O)NC[C@@H]1CCN(CC(c2ccccc2)c2ccccc2)C(=O)[C@H](CCCN)N1` (stereo partly drawn) [Compound 221, N-(((3S,5S)-3-(3-aminopropyl)-1-(2,2-diphenylethyl)-2-oxo-1,4-diazepan-5-yl)methyl)-2-ethylhexanamide] the figure was > 5.00.
With `CCCCC(CC)C(=O)NC[C@@H]1CCN(CC(c2ccccc2)c2ccccc2)C(=O)[C@H](CCCNC(=N)N)N1` (stereo partly drawn) [Compound 224, N-(((3S,5S)-1-(2,2-diphenylethyl)-3-(3-guanidinopropyl)-2-oxo-1,4-diazepan-5-yl)methyl)-2-ethylhexanamide] the figure was > 6.00.
The result for `N=C(N)NCCC[C@@H]1N[C@H](CNC(=O)c2ccc3ccccc3c2)CCN(c2ccc3ccccc3c2)C1=O` [Compound 226, N-(((3S,5S)-3-(3-guanidinopropyl)-1-(naphthalen-2-yl)-2-oxo-1,4-diazepan-5-yl)methyl)-2-naphthamide] reads > 5.00; that for `N=C(N)NCCC[C@@H]1N[C@H](CNC(=O)c2ccc3ccccc3c2)CCN(CC2c3ccccc3-c3ccccc32)C1=O` [Compound 227, N-(((3S,5S)-1-((9H-fluoren-9-yl)methyl)-3-(3-guanidinopropyl)-2-oxo-1,4-diazepan-5-yl)methyl)-2-naphthamide], > 5.00.
As for `CC(C)NCCCC[C@@H]1N[C@H](CNC(=O)c2ccc3ccccc3c2)CCN(CC(c2ccccc2)c2ccccc2)C1=O` [Compound 229, N-(((3S,5S)-1-(2,2-diphenylethyl)-3-(4-(isopropylamino)butyl)-2-oxo-1,4-diazepan-5-yl)methyl)-2-naphthamide], the pIC50 is > 7.00.
As for `NCCC[C@@H]1N[C@H](CNC(=O)COc2ccc(F)cc2)CCN(CC(c2ccccc2)c2ccccc2)C1=O` [Compound 233, N-(((3S,5S)-3-(3-aminopropyl)-1-(2,2-diphenylethyl)-2-oxo-1,4-diazepan-5-yl)methyl)-2-(4-fluorophenoxy)acetamide], the pIC50 was > 6.00.
Consider `Cc1c(C(=O)NC[C@@H]2CCN(CC(c3ccccc3)c3ccccc3)C(=O)[C@H](CCCN)N2)cnn1-c1ccccc1` [Compound 241, N-(((3S,5S)-3-(3-aminopropyl)-1-(2,2-diphenylethyl)-2-oxo-1,4-diazepan-5-yl)methyl)-5-methyl-1-phenyl-1H-pyrazole-4-carboxamide], for which the pIC50 was > 5.00.
On to `N=C(N)NCCC[C@@H]1N[C@H](CNC(=O)c2ccc3ccccc3c2)CCN(CCC2CCCCC2)C1=O` [Compound 242, N-(((3S,5S)-1-(2-cyclohexylethyl)-3-(3-guanidinopropyl)-2-oxo-1,4-diazepan-5-yl)methyl)-2-naphthamide], for which the negative-log IC50 (pIC50) is > 6.00.
`N=C(N)NCCC[C@@H]1N[C@H](CNC(=O)c2ccc3ccccc3c2)CCN(CCC2CC3CCC2C3)C1=O` (stereo partly drawn) [Compound 243, N-(((3S,5S)-1-(2-(bicyclo[2.2.1]heptan-2-yl)ethyl)-3-(3-guanidinopropyl)-2-oxo-1,4-diazepan-5-yl)methyl)-2-naphthamide]: the pIC50 was > 6.00.
The result for `COc1ccc(C(CN2CC[C@@H](CNC(=O)c3ccc4ccccc4c3)N[C@@H](CCCNC(=N)N)C2=O)c2ccc(OC)cc2)cc1` [Compound 244, N-(((3S,5S)-1-(2,2-bis(4-methoxyphenyl)ethyl)-3-(3-guanidinopropyl)-2-oxo-1,4-diazepan-5-yl)methyl)-2-naphthamide] reads > 5.00; that for `O=C(NC[C@@H]1CCN(CC(c2ccccc2)c2ccccc2)C(=O)[C@H](CCCNCc2ccccc2)N1)c1ccc2ccccc2c1` [Compound 245, N-(((3S,5S)-3-(3-(benzylamino)propyl)-1-(2,2-diphenylethyl)-2-oxo-1,4-diazepan-5-yl)methyl)-2-naphthamide], > 7.00.
The result for `O=C(NC[C@@H]1CCN(CC(c2ccccc2)c2ccccc2)C(=O)[C@H](CCCNC2CCCC2)N1)c1ccc2ccccc2c1` [Compound 246, N-(((3S,5S)-3-(3-(cyclopentylamino)propyl)-1-(2,2-diphenylethyl)-2-oxo-1,4-diazepan-5-yl)methyl)-2-naphthamide] reads > 7.00.
For `O=C(NC[C@@H]1CCN(CC(c2ccccc2)c2ccccc2)C(=O)[C@H](CCCNC2CCC2)N1)c1ccc2ccccc2c1` [Compound 247, N-(((3S,5S)-3-(3-(cyclobutylamino)propyl)-1-(2,2-diphenylethyl)-2-oxo-1,4-diazepan-5-yl)methyl)-2-naphthamide], the pIC50 is > 7.00.
Take `N=C(N)NCCC[C@@H]1N[C@H](CNC(=O)c2ccc3ccccc3c2)CCN(Cc2ccccc2)C1=O` [Compound 249, N-(((3S,5S)-1-benzyl-3-(3-guanidinopropyl)-2-oxo-1,4-diazepan-5-yl)methyl)-2-naphthamide]: the pIC50 is > 5.00.

The term pIC50 denotes the negative decadic logarithm of the IC50, by convention in mol/L.
